The source made the active and inactive calls.
How the values were obtained:
Protein skinhead-1 = molecular target: T1, Protein skinhead-1 (Caenorhabditis elegans, UniProt P34707); type: functional
T1 sequence (P34707 whole entry): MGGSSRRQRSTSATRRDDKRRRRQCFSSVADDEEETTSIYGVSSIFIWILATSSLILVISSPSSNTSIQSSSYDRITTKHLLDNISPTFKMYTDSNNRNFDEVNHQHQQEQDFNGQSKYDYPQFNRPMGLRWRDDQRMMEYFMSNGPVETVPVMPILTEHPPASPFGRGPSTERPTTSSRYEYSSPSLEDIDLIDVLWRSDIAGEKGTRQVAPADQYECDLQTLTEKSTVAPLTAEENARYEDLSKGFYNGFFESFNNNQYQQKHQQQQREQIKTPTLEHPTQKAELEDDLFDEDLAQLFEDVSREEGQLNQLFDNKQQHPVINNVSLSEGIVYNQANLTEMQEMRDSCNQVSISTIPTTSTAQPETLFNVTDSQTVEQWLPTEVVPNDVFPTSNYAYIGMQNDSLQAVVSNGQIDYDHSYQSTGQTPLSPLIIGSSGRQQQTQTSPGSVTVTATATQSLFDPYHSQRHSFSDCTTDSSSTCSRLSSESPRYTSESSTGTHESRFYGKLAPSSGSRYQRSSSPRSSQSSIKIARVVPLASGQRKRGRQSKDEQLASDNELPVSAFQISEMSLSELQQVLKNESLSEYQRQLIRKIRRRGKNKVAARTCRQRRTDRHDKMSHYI

[1] = P. falciparum Dd2 growth inhibitors, dose response, SYBR Green, cherry-picked samples (AID 1159567); type: functional, cell-based
[2] = molecular target: T2, Rac GTPase-activating protein 1 (Homo sapiens, UniProt Q9H0H5); test: MgcRacGAP GTPase-activating activity inhibitors, confirmation, biochemical, ADP Hunter fluorescence, primary and confirmatory (AID 624330); type: functional
T2 sequence (Q9H0H5 whole entry): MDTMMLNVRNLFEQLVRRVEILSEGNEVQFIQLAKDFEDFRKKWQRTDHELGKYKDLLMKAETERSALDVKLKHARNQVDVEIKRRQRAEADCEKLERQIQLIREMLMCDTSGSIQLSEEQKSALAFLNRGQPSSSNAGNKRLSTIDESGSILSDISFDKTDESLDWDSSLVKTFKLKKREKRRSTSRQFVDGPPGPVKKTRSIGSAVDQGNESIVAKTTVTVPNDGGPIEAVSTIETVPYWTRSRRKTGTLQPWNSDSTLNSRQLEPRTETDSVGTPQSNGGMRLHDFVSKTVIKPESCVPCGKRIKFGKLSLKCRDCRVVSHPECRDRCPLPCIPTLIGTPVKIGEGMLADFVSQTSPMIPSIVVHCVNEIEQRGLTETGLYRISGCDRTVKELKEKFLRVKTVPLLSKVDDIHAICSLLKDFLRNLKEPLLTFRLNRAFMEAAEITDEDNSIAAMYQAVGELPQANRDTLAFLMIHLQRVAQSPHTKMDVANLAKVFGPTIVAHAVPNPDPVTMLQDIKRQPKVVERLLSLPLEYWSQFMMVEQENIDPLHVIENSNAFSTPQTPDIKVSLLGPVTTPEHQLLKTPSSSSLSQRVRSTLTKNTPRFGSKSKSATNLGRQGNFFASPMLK

[3] = Luminescence Cell-Based Dose Response HTS to Identify Activators of Luciferase Translation or Activity in H4 […] Cells. [Related pubchem assays: 1829 (Project Summary), 1814 (Primary HTS)]; type: functional
[4] = molecular target: Luciferin 4-monooxygenase (Photinus pyralis, UniProt P08659); test: firefly luciferase enzyme inhibitors, dose response, biochemical, luminescence (AID 1891)
[5] = Luminescence Cell-Based Dose Confirmation HTS to Identify Inhibitors of Platelet Dense Granule Release. [Related pubchem assays: 1663 (Primary HTS), 1678 (Summary of Project)]; type: functional
cells [6] = type: functional, cell-based
cells [7] = type: functional, cell-based; remark: listed apart in the source
INS1 = test: beta cell apoptosis inhibitors, cytokine rescue, dose response, luminescence, retest (AID 449756); type: functional, cell-based; details: Rattus norvegicus;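 note: cell death triggered by IL-1 beta plus TNF-alpha plus IFN-gamma mixture; protective hits raise ATP signal compared with cytokine alone wells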
[8] = Luminescence Cell-Based Dose Retest to Confirm Inhibitors of Cancer Stem Cells. [Related pubchem assays (depositor defined):AID2717, AID2721]; type: functional; details: Homo sapiens
[9] = molecular target: T3, Ubiquitin-conjugating enzyme E2 N (Homo sapiens, UniProt P61088); type: functional;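 note: Dose-response confirmation in a TR-FRET assay detecting UBC13-driven polyubiquitin chain formation, inhibition measured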
T3 sequence (P61088 whole entry): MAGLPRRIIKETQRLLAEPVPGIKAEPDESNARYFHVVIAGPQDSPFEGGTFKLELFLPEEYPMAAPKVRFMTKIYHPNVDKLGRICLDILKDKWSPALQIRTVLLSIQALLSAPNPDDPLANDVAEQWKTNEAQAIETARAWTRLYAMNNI

Cytochrome P450 1A2 = molecular target: T4, Cytochrome P450 1A2 (Homo sapiens, UniProt P05177);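 note: PubChem cytochrome P450 panel assay, CYP1A2 panel member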
T4 sequence (P05177 whole entry): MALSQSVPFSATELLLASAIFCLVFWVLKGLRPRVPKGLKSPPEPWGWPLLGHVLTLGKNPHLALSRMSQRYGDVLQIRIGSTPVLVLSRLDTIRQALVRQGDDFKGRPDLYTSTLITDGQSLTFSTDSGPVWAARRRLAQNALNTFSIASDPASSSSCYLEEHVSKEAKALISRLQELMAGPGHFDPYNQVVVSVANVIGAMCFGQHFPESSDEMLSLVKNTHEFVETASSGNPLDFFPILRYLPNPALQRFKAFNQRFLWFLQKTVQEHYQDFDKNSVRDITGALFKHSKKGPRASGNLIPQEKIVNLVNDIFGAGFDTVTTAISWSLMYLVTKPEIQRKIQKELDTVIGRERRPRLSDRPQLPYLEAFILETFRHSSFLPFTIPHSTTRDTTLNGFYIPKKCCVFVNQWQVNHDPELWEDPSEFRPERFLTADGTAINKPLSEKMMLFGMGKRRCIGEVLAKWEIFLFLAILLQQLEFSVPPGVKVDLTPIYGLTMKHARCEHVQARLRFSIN

[10] = molecular target: FAD-linked sulfhydryl oxidase ALR (Homo sapiens, UniProt P55789); test: inhibitors of human ALR sulfhydryl oxidase, dose response, biochemical, H2O2 detection, luminescence, cherry-pick (AID 493248)
Cytochrome P450 3A4 = Cytochrome P450 3A4 (Homo sapiens, UniProt P08684);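 note: CYP3A4 tested as one member of a cytochrome P450 panel screen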
[11] = molecular target: T5, Short transient receptor potential channel 4 (Mus musculus, UniProt Q9QUQ5); test: mouse TRPC4 channel inhibitors, dose response, cell-based, HEK293 TRPC4/mu-opioid, Fluo-4 calcium (AID 434942); type: functional;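 note: potency of inhibitors blocking the TRPC4 calcium response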
T5 sequence (Q9QUQ5 whole entry): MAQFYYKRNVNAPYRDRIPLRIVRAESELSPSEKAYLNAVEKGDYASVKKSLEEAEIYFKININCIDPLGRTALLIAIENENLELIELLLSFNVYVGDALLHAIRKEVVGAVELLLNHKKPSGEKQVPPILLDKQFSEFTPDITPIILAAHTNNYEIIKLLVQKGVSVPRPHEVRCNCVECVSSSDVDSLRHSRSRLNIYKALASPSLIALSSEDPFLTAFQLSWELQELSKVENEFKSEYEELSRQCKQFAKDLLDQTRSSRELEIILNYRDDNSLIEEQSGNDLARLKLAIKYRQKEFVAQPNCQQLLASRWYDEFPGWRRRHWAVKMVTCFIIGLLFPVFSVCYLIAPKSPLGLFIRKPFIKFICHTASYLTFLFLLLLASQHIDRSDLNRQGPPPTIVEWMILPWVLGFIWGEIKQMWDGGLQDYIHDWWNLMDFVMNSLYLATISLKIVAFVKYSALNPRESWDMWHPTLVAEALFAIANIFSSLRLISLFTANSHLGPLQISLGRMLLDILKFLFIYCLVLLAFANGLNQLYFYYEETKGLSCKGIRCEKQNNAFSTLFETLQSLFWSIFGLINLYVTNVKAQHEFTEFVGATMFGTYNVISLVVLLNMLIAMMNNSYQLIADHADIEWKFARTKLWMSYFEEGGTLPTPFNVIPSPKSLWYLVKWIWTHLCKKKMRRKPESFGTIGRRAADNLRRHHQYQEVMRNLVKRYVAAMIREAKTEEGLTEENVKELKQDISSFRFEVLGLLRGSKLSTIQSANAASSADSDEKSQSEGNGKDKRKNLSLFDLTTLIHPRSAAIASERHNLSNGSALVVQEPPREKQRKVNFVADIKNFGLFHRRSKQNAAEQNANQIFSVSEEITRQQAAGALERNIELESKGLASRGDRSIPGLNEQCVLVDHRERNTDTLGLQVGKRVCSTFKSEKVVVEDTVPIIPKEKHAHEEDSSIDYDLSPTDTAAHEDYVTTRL

Cytochrome P450 2C19 = Cytochrome P450 2C19 (Homo sapiens, UniProt P33261); test: Cytochrome panel assay with activity outcomes. Panel member name: p450-cyp2c19 Compounds with AC50 equal or less than 10 uM are considered active; type: functional; details: read-out: AC50
Cytochrome P450 2C9 = Cytochrome P450 2C9 (Homo sapiens, UniProt P11712)
cells [12] = type: functional
Cytochrome P450 2D6 = Cytochrome P450 2D6 (Homo sapiens, UniProt P10635);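 note: CYP2D6 member of a cytochrome P450 panel assay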
Chain of Cytochrome P450 2D6 (P10635 whole entry): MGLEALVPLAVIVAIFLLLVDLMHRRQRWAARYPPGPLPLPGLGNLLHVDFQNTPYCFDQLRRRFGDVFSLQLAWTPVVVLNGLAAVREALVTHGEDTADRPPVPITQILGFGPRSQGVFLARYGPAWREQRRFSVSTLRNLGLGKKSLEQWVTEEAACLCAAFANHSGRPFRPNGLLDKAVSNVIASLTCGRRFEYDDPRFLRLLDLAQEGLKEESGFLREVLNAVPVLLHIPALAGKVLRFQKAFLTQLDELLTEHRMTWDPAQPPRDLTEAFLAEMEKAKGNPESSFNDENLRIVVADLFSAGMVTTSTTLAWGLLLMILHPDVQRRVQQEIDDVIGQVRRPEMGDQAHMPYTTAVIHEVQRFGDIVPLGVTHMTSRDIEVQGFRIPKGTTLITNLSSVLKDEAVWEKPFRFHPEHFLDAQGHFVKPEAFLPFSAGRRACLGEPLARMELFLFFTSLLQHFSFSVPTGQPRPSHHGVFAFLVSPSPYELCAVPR

Chain of Cytochrome P450 2C19 (P33261 whole entry): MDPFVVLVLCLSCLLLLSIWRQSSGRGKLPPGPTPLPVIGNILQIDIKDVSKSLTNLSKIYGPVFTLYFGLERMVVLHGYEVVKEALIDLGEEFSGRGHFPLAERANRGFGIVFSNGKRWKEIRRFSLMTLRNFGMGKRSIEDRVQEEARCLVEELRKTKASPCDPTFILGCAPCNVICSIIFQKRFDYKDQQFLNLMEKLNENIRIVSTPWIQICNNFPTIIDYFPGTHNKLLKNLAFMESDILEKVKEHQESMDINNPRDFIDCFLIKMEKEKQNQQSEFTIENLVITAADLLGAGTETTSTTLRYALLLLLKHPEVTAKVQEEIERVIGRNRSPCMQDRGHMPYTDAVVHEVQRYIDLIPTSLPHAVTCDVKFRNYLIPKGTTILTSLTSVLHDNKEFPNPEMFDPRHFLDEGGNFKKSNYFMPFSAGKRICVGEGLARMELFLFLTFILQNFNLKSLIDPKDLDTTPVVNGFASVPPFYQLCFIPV
Chain of Luciferin 4-monooxygenase (P08659 whole entry): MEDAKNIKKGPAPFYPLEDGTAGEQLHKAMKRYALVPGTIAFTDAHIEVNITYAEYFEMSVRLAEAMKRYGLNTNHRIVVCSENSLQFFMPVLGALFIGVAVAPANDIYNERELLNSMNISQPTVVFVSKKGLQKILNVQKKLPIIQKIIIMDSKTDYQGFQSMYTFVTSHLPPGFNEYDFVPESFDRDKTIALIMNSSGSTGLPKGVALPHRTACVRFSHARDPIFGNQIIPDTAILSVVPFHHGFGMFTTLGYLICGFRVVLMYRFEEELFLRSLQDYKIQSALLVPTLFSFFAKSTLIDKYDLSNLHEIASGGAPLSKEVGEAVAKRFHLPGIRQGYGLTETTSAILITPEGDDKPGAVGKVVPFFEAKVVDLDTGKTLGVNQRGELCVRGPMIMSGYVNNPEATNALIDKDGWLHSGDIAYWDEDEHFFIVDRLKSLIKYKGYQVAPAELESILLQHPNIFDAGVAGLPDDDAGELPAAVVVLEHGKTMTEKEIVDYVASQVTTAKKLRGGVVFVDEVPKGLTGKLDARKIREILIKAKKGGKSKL
Chain of FAD-linked sulfhydryl oxidase ALR (P55789 whole entry): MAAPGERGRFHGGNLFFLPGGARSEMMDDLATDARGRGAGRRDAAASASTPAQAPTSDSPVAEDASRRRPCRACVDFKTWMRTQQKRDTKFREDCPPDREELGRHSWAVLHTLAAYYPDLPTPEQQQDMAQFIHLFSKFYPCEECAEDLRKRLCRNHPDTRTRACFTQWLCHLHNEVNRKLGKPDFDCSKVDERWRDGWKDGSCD
Chain of Cytochrome P450 3A4 (P08684 whole entry): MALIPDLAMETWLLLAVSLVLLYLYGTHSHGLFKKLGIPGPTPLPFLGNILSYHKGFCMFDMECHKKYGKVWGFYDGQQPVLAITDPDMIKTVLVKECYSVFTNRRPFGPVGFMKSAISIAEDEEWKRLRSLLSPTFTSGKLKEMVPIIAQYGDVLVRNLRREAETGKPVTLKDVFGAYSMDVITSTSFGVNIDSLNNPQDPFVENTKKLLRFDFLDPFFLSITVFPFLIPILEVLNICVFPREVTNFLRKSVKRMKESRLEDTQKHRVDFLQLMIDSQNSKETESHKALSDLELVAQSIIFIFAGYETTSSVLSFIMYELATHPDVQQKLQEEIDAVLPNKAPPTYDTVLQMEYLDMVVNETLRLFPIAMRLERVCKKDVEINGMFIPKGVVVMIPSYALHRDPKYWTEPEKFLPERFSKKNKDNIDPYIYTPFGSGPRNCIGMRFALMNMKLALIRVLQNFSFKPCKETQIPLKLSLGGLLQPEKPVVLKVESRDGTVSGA
Chain of Cytochrome P450 2C9 (P11712 whole entry): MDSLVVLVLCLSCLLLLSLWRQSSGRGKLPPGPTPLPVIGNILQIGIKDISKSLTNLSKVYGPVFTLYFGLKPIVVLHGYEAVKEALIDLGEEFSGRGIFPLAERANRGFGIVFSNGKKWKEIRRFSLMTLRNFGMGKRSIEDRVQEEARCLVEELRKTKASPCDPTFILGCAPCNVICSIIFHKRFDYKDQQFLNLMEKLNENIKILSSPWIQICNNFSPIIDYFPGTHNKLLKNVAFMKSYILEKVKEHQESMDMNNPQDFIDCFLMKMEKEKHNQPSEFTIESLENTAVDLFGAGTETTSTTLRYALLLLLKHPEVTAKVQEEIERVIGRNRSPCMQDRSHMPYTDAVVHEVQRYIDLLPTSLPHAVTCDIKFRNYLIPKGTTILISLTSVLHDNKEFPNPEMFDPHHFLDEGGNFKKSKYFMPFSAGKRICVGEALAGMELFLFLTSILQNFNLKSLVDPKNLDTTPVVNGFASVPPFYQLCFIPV

O=C1C(=Cc2ccccn2)CCc2ccccc21
IC50 (Protein skinhead-1): 43.7 µM (active)

CCC(=O)N1CCCCN2[C@H](C1)[C@H](c1ccc(-c3cccnc3)cc1)[C@@H]2CO
AC50 [1]: 21.9 µM (active)

N/C(=N\N=C\c1ccc(O)cc1)c1nonc1N
IC50 [2]: 23.4 µM (active) | EC50 [3]: 0.334 µM (active) | EC50 [4]: 8.45 µM (active) | EC50 [5]: 1.07 µM (active)

COc1cccc(/C=N/NC(=O)c2ccc(-c3ccccc3)cc2)c1O
EC50 (cells [6]): 166 µM (active) | EC50 (cells [7]): 56.6 µM (active) | AC50 (INS1): 3.83 µM (active) | AC50 [8]: 3.26 µM (active)

COc1ccc(-c2c(-c3ccc(C#N)cc3)oc(=O)c3cc(OC)c(OC)cc23)cc1
IC50 [9]: > 20 µM (inactive)

CC(C)C1NC(=S)N(Cc2ccccc2)C1=O (centres undefined)
AC50 (Cytochrome P450 1A2): 20 µM (inconclusive)

CCn1c2ccccc2c2cc(N)ccc21
IC50 [2]: 64.1 µM (active)

O=C(NCCCn1ccnc1)C1CCN(S(=O)(=O)c2cc([N+](=O)[O-])ccc2Cl)CC1
IC50 [9]: > 20 µM (inactive)

COc1ccc(C(=O)NCCc2nc3cc([N+](=O)[O-])ccc3n2C)cc1
EC50 (cells [6]): > 350 µM (not active) | EC50 (cells [7]): > 350 µM (not active)

COc1ccccc1NC(=O)c1cc(S(=O)(=O)N2CCC3(CC2)OCCO3)ccc1F
IC50 [9]: > 20 µM (inactive)

c1ccc(C2(Cn3ccc4ccccc43)OCCO2)cc1
AC50 (INS1): 40.2 µM (active) | IC50 (Protein skinhead-1): > 100 µM (inactive)

COc1ccccc1N=NNc1ccccc1OC
IC50 [2]: 90.3 µM (active)

CC1=NN2C(=N)/C(=C\c3cc(C)n(Cc4ccccc4)c3C)C(=O)N=C2S1
EC50 (cells [6]): > 350 µM (not active) | EC50 (cells [7]): > 350 µM (not active) | AC50 [10]: 0.405 µM (active)

O=C1CC2(CCCC2)CC(=O)N1CCCCNC[C@H]1COc2ccccc2O1
AC50 (Cytochrome P450 1A2): 79.4 µM (inconclusive)

CCN(Cc1ccccc1)c1ccc(/C=N/N2CCOCC2)cc1
IC50 [2]: 63.2 µM (active)

Oc1ccc(CCNCc2cc3c(cc2Br)OCO3)cc1
AC50 (Cytochrome P450 1A2): 1 µM (inconclusive) | AC50 (Cytochrome P450 3A4): 3.98 µM (inconclusive)

O=S(=O)(O)c1ccc2c(/N=N\c3cccc4ccccc34)c(O)c(S(=O)(=O)O)cc2c1
AC50 (Cytochrome P450 1A2): 5.01 µM (inconclusive)

COc1ccccc1NC(=O)N1CCCCN2[C@H](C1)[C@H](c1ccc(C#CC3CC3)cc1)[C@@H]2CO
AC50 [1]: 5.95 µM (active)

O=C(C[n+]1cccc(CNC(=O)c2ccc(OC(F)F)cc2)c1)Nc1ccc(SC(F)F)cc1
IC50 [9]: > 20 µM (inactive) | EC50 [11]: 7.5 µM (active)

CC[N+](C)(CC)CCOC(=O)C1c2ccccc2Oc2ccccc21 [METHANTHELINE]
AC50 (Cytochrome P450 1A2): 10 µM (inconclusive)

O=C(Nc1cnn(Cc2ccc(Cl)cc2)c1)c1ccc([N+](=O)[O-])cc1
AC50 (Cytochrome P450 2C19): 2.24 µM (inconclusive) | AC50 (Cytochrome P450 1A2): 6.31 µM (inconclusive) | AC50 (Cytochrome P450 2C9): 0.501 µM (inconclusive)

O=C(CCN1C(=O)S/C(=C\c2ccc(F)cc2)C1=O)Nc1ccc(C(=O)O)c(O)c1
EC50 (cells [6]): > 350 µM (not active) | EC50 (cells [7]): 3.94 µM (active) | IC50 (cells [12]): 7.61 µM (active)

O=C(O)c1cnc2c(ccc3ncc(C(=O)O)c(O)c32)c1O
AC50 (Cytochrome P450 1A2): 5.01 µM (inconclusive)

O=C(c1cccc(F)c1)N1CCC2(CCCN(C(c3ccccc3)c3ccccc3)C2)CC1
AC50 (Cytochrome P450 2D6): 10 µM (inconclusive) | AC50 (Cytochrome P450 2C19): 5.01 µM (inconclusive) | AC50 (Cytochrome P450 1A2): 6.31 µM (inconclusive)

Cc1ccc2c(c1)N(C(=O)CCC(=O)NCCCN1CCC(Cc3ccccc3)CC1)CCO2
AC50 (INS1): 20.4 µM (active) | IC50 [9]: > 20 µM (inactive)

CCCCc1ccc(NC(=O)C2CCN(S(C)(=O)=O)CC2)cc1
EC50 (cells [6]): > 350 µM (not active) | EC50 (cells [7]): > 350 µM (not active)

Cc1ccc(OCCNC(=O)CCc2nc(O)c3c4c(sc3n2)CCCC4)cc1
EC50 (cells [6]): > 350 µM (not active) | EC50 (cells [7]): > 350 µM (not active)

CCOC(=O)CSc1nc(C(C)(C)C)cc(C(F)(F)F)c1C#N
IC50 [9]: > 20 µM (inactive)

CC(C)(C)NC(=O)CN(C(=O)CCC(=O)Nc1nccs1)c1cccc(C(F)(F)F)c1
IC50 (Protein skinhead-1): > 100 µM (inactive)

COc1ccc(NC(=O)c2cccs2)cn1
EC50 (cells [6]): > 350 µM (not active) | EC50 (cells [7]): 48.3 µM (active)

CC1(C(=O)Nc2cnc3ccccc3c2)CCN1C(=O)c1ccccc1CCc1ccccc1 (centres undefined)
IC50 (Protein skinhead-1): > 100 µM (inactive)

CCCCCNC(=O)c1ccccc1SC
IC50 (Protein skinhead-1): 74.6 µM (inactive)
